Reference: ChEMBL document CHEMBL1201861, “Genomics of Drug Sensitity in Cancer screening data, Wellcome Trust Sanger Institute”

Each compound was assayed on KGN (assay: cells). Details: Homo sapiens, KGN.
Type: functional, cell-based, Homo sapiens
Description: SANGER: Inhibition of human KGN cell growth in a cell viability assay.
Cc1cc(N2CCOCC2)cc2[nH]c(-c3c(NC[C@@H](O)c4cccc(Cl)c4)cc[nH]c3=O)nc12 showed an IC50 of 1.09 µM.

What follows are compounds tested on no-11 (assay: cells). Details: Homo sapiens.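 Further: growth inhibition of human NO-11 cells, read out with a cell viability assay.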
Type: functional, cell-based, Homo sapiens
Description: SANGER: Inhibition of human no-11 cell growth in a cell viability assay.
Work on Cc1cc(N2CCOCC2)cc2[nH]c(-c3c(NC[C@@H](O)c4cccc(Cl)c4)cc[nH]c3=O)nc12 yielded an IC50 of over 5.12 µM.

The compounds below were run on EW-16 (assay: cells). Details: Homo sapiens, EW-16.
Type: functional, cell-based, Homo sapiens
Description: SANGER: Inhibition of human EW-16 cell growth in a cell viability assay.
For Cc1cc(N2CCOCC2)cc2[nH]c(-c3c(NC[C@@H](O)c4cccc(Cl)c4)cc[nH]c3=O)nc12, the IC50 was 0.206 µM.

What follows are compounds tested on GI-ME-N (assay: cells). Details: Homo sapiens, GI-ME-N.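 Further: growth inhibition of human GI-ME-N cells, read out with a cell viability assay.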
Type: functional, cell-based, Homo sapiens
Description: SANGER: Inhibition of human GI-ME-N cell growth in a cell viability assay.
Cc1cc(N2CCOCC2)cc2[nH]c(-c3c(NC[C@@H](O)c4cccc(Cl)c4)cc[nH]c3=O)nc12 showed an IC50 of 2.06 µM.

These compounds were tested on GT3TKB (assay: cells). Details: Homo sapiens, GT3TKB.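 Further: growth inhibition of the cell line, read out with a cell viability assay.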
Type: functional, cell-based, Homo sapiens
Description: SANGER: Inhibition of human GT3TKB cell growth in a cell viability assay.
With Cc1cc(N2CCOCC2)cc2[nH]c(-c3c(NC[C@@H](O)c4cccc(Cl)c4)cc[nH]c3=O)nc12 the IC50 was over 5.12 µM.

These compounds were tested on KARPAS-45 (assay: cells). Details: Homo sapiens, KARPAS-45.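 Further: inhibition of cell line growth, read out through a viability assay.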
Type: functional, cell-based, Homo sapiens
Description: SANGER: Inhibition of human KARPAS-45 cell growth in a cell viability assay.
Cc1cc(N2CCOCC2)cc2[nH]c(-c3c(NC[C@@H](O)c4cccc(Cl)c4)cc[nH]c3=O)nc12 gave an IC50 of 4.01 µM.

These compounds were tested on BE-13 (assay: cells). Details: Homo sapiens, BE-13.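 Further: growth inhibition of human BE-13 cells, measured with a cell viability assay.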
Type: functional, cell-based, Homo sapiens
Description: SANGER: Inhibition of human BE-13 cell growth in a cell viability assay.
Cc1cc(N2CCOCC2)cc2[nH]c(-c3c(NC[C@@H](O)c4cccc(Cl)c4)cc[nH]c3=O)nc12 gave an IC50 of over 5.12 µM.

These compounds were tested on NCI-H747 (assay: cells). Details: Homo sapiens, NCI-H747.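 Further: growth inhibition of human NCI-H747 cells, read out by a cell viability assay.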
Type: functional, cell-based, Homo sapiens
Description: SANGER: Inhibition of human NCI-H747 cell growth in a cell viability assay.
In the case of Cc1cc(N2CCOCC2)cc2[nH]c(-c3c(NC[C@@H](O)c4cccc(Cl)c4)cc[nH]c3=O)nc12, the IC50 is reported as 0.68 µM.

The compounds below were run on KLE (assay: cells). Details: Homo sapiens.
Type: functional, cell-based
Description: SANGER: Inhibition of human KLE cell growth in a cell viability assay.
With Cc1cc(N2CCOCC2)cc2[nH]c(-c3c(NC[C@@H](O)c4cccc(Cl)c4)cc[nH]c3=O)nc12 the IC50 was 3.62 µM.

What follows are compounds tested on Lu-65 (assay: cells). Details: Homo sapiens, Lu-65.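 Further: growth inhibition of Lu-65 cancer cells, read out by a cell viability assay.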
Type: functional, cell-based, Homo sapiens
Description: SANGER: Inhibition of human LU-65 cell growth in a cell viability assay.
Cc1cc(N2CCOCC2)cc2[nH]c(-c3c(NC[C@@H](O)c4cccc(Cl)c4)cc[nH]c3=O)nc12 gave an IC50 of 4.5 µM.

The compounds below were run on BB49-HNC (assay: cells). Details: Homo sapiens, BB49-HNC.
Type: functional, cell-based, Homo sapiens
Description: SANGER: Inhibition of human BB49-HNC cell growth in a cell viability assay.
Cc1cc(N2CCOCC2)cc2[nH]c(-c3c(NC[C@@H](O)c4cccc(Cl)c4)cc[nH]c3=O)nc12 gave an IC50 of over 5.12 µM.

Each compound was assayed on NCI-H1395 (assay: cells). Details: Homo sapiens, NCI-H1395.
Type: functional, cell-based, Homo sapiens
Description: SANGER: Inhibition of human NCI-H1395 cell growth in a cell viability assay.
Compound Cc1cc(N2CCOCC2)cc2[nH]c(-c3c(NC[C@@H](O)c4cccc(Cl)c4)cc[nH]c3=O)nc12 has an IC50 of over 5.12 µM.

These compounds were tested on MMAC-SF (assay: cells). Details: Homo sapiens.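 Further: growth inhibition of human MMAC-SF cells, read out with a cell viability assay.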
Type: functional, cell-based
Description: SANGER: Inhibition of human MMAC-SF cell growth in a cell viability assay.
For Cc1cc(N2CCOCC2)cc2[nH]c(-c3c(NC[C@@H](O)c4cccc(Cl)c4)cc[nH]c3=O)nc12, the IC50 was 0.5 µM.

Each compound was assayed on OCUB-M (assay: cells). Details: Homo sapiens.
Type: functional, cell-based
Description: SANGER: Inhibition of human OCUB-M cell growth in a cell viability assay.
Compound Cc1cc(N2CCOCC2)cc2[nH]c(-c3c(NC[C@@H](O)c4cccc(Cl)c4)cc[nH]c3=O)nc12 has an IC50 of over 5.12 µM.

Each compound was assayed on OVCAR-4 (assay: cells). Details: Homo sapiens, OVCAR-4.
Type: functional, cell-based, Homo sapiens
Description: SANGER: Inhibition of human OVCAR-4 cell growth in a cell viability assay.
Cc1cc(N2CCOCC2)cc2[nH]c(-c3c(NC[C@@H](O)c4cccc(Cl)c4)cc[nH]c3=O)nc12 showed an IC50 of 4.87 µM.

What follows are compounds tested on MC116 (assay: cells). Details: Homo sapiens, MC116.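 Further: growth inhibition of MC116 cells, read out with a cell viability assay.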
Type: functional, cell-based, Homo sapiens
Description: SANGER: Inhibition of human MC116 cell growth in a cell viability assay.
In the case of Cc1cc(N2CCOCC2)cc2[nH]c(-c3c(NC[C@@H](O)c4cccc(Cl)c4)cc[nH]c3=O)nc12, the IC50 is reported as over 5.12 µM.

Each compound was assayed on MZ2-MEL (assay: cells). Details: Homo sapiens, MZ2-MEL.
Type: functional, cell-based, Homo sapiens
Description: SANGER: Inhibition of human MZ2-MEL cell growth in a cell viability assay.
In the case of Cc1cc(N2CCOCC2)cc2[nH]c(-c3c(NC[C@@H](O)c4cccc(Cl)c4)cc[nH]c3=O)nc12, the IC50 is reported as 4.8 µM.

Each compound was assayed on NCI-H2126 (assay: cells). Details: Homo sapiens, NCI-H2126.
Type: functional, cell-based, Homo sapiens
Description: SANGER: Inhibition of human NCI-H2126 cell growth in a cell viability assay.
In the case of Cc1cc(N2CCOCC2)cc2[nH]c(-c3c(NC[C@@H](O)c4cccc(Cl)c4)cc[nH]c3=O)nc12, the IC50 is reported as 3.98 µM.

What follows are compounds tested on TE-10 (assay: cells). Details: Homo sapiens, TE-10.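 Further: growth inhibition of TE-10 cells, measured by a cell viability assay.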
Type: functional, cell-based, Homo sapiens
Description: SANGER: Inhibition of human TE-10 cell growth in a cell viability assay.
Cc1cc(N2CCOCC2)cc2[nH]c(-c3c(NC[C@@H](O)c4cccc(Cl)c4)cc[nH]c3=O)nc12 gave an IC50 of 1.2 µM.

The compounds below were run on KS-1 (assay: cells). Details: Homo sapiens.
Type: functional, cell-based
Description: SANGER: Inhibition of human KS-1 cell growth in a cell viability assay.
With Cc1cc(N2CCOCC2)cc2[nH]c(-c3c(NC[C@@H](O)c4cccc(Cl)c4)cc[nH]c3=O)nc12 the IC50 was 0.102 µM.

The compounds below were run on NB5 (assay: cells). Details: Homo sapiens, NB5.
Type: functional, cell-based, Homo sapiens
Description: SANGER: Inhibition of human NB5 cell growth in a cell viability assay.
Work on Cc1cc(N2CCOCC2)cc2[nH]c(-c3c(NC[C@@H](O)c4cccc(Cl)c4)cc[nH]c3=O)nc12 yielded an IC50 of 1.11 µM.

Each compound was assayed on GB-1 (assay: cells). Details: Homo sapiens, GB-1.
Type: functional, cell-based, Homo sapiens
Description: SANGER: Inhibition of human GB-1 cell growth in a cell viability assay.
Compound Cc1cc(N2CCOCC2)cc2[nH]c(-c3c(NC[C@@H](O)c4cccc(Cl)c4)cc[nH]c3=O)nc12 has an IC50 of 0.495 µM.

Each compound was assayed on SNU-C2B (assay: cells). Details: Homo sapiens.
Type: functional, cell-based
Description: SANGER: Inhibition of human SNU-C2B cell growth in a cell viability assay.
With Cc1cc(N2CCOCC2)cc2[nH]c(-c3c(NC[C@@H](O)c4cccc(Cl)c4)cc[nH]c3=O)nc12 the IC50 was 2.71 µM.

The compounds below were run on NKM-1 (assay: cells). Details: Homo sapiens, NKM-1.
Type: functional, cell-based, Homo sapiens
Description: SANGER: Inhibition of human NKM-1 cell growth in a cell viability assay.
Cc1cc(N2CCOCC2)cc2[nH]c(-c3c(NC[C@@H](O)c4cccc(Cl)c4)cc[nH]c3=O)nc12 showed an IC50 of over 5.12 µM.

What follows are compounds tested on SF-126 (assay: cells). Details: Homo sapiens, SF-126.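 Further: growth inhibition of human SF126 cells, read out with a cell viability assay.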
Type: functional, cell-based, Homo sapiens
Description: SANGER: Inhibition of human SF126 cell growth in a cell viability assay.
Work on Cc1cc(N2CCOCC2)cc2[nH]c(-c3c(NC[C@@H](O)c4cccc(Cl)c4)cc[nH]c3=O)nc12 yielded an IC50 of 2.47 µM.
